# Results: paper PMC8857485, “Prostate secretory protein 94 inhibits sterol binding and export by the mammalian CAP protein CRISP2 in a calcium-sensitive manner” (The Journal of Biological Chemistry, 2022)
# Columns and labels:
# CRISP2 = target: T1, CRISP2 (Homo sapiens, UniProt P16562); test: MST binding to CRISP2; parameters: species or system mammalian; conditions: calcium chloride titration, read-out: Kd, calcium binding by CRISP2
# T1 construct: made in house; host or cells: E. coli BL21
# T1 sequence (P16562 22-243): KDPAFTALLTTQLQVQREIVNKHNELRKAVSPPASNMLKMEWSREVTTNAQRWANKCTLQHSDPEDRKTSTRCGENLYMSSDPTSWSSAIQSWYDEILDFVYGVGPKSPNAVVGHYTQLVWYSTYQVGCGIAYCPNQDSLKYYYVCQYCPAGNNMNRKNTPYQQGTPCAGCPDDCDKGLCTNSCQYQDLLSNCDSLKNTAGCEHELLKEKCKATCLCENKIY
# From the text: To confirm the direct interaction of PSP94 with CRISP3 and to test whether PSP94 would also bind other CAP family members such as yeast Pry1, or CRISP2, we performed in vitro protein binding assay using microscale thermophoresis (MST). Therefore, PSP94 and the CAP family members, Pry1, CRISP2, and CRISP3, were expressed as fusion proteins with a C-terminal polyhistidine tag in Escherichia coli, and the proteins were affinity purified on nickel-NTA agarose beads. The purified CAP proteins were then fluorescently labeled using RED-tris-NTA and incubated with varying concentrations of PSP94. […] PSP94 thus has high binding affinity for all three CAP proteins tested, and it also binds the CAP domain of Pry1 (Pry1^CAP) alone.
# DNA encoding proteins of interest were PCR amplified and cloned into NcoI and XhoI restriction sites of pET22b, which contains a PelB signal sequence to direct the secretion of expressed protein into the periplasmic space. Plasmids were transformed into E. coli BL21, and proteins were expressed with a C-terminal polyhistidine tag. Different induction strategies were used: overnight induction with lactose at 24 °C for Pry1, CRISP2, and PSP94 and 6 h of induction with 0.4 mM IPTG at 24 °C for the CAP domain of Pry1. Cells were collected and lysed, and the soluble cell lysate was incubated with nickel-nitrilotriacetic acid beads as per the manufacturer instructions (Qiagen). Beads were washed and loaded onto a Ni^2+-NTA column, and proteins were eluted with a buffer containing 60 mM NaH2PO4, 300 mM NaCl, and 300 mM imidazole, pH 8.0. […] Protein concentration was determined by Lowry assay using the Folin reagent and bovine serum albumin as protein standard.
# MST experiments were performed to assess protein–protein, protein–lipid, and protein–calcium interactions using a Monolith NT.115 (Nanotemper Technologies). […] The dissociation constant Kd was obtained by plotting the normalized fluorescence (Fnorm) against the logarithm of ligand concentration. […]
# [1] = system: sterol export by CAP proteins (Pry1, CRISP2, CRISP3); test: In vivo sterol export assay ([14C]cholesteryl acetate export) in yeast; type: cell-based, Saccharomyces cerevisiae; conditions: 10 mM calcium in medium, cells expressing CRISP2 and PSP94
# From the text: To test whether expression of PSP94 would affect the function of Pry1 in sterol export, we expressed PSP94 fused to the N-terminal signal sequence from Pry1 (amino acids 1–19) from a constitutive alcohol dehydrogenase promoter (ADH1) to direct the protein into the yeast secretory pathway. This PSP94-containing plasmid was then transformed into heme-deficient yeast cells lacking the sterol deacetylase Say1 (hem1Δ say1Δ). This strain is able to take up radiolabeled [^14C]cholesterol, acetylate it in an alcohol acetyltransferase 2 (Atf2)-dependent pathway, and secrete the resulting radiolabeled cholesteryl acetate back into the culture medium ([29]). […] To test whether expression of PSP94 would affect the synthesis or secretion of Pry1, CRISP2, or CRISP3, we coexpressed FLAG-tagged PSP94 with hemagglutinin (HA)-tagged Pry1, CRISP2, or CRISP3, separated yeast cells from the culture medium, precipitated proteins from both fractions with trichloroacetic acid (TCA), and detected the tagged proteins by Western blotting.
# The sterol export assay was performed as described ([29]). […] Extracted radiolabeled lipids were quantified by scintillation counting, and volumes corresponding to 10,000 cpm (counts per minute) were dried. […] TLC plates were then exposed to phosphorimager screens, and radiolabeled lipids were visualized and quantified using a phosphorimager. […]
# PSP94 = target: T2, PSP94 (Homo sapiens, UniProt P08118); test: MST binding to PSP94; conditions: calcium chloride titration
# T2 construct: made in house; host or cells: E. coli BL21
# T2 sequence (P08118 21-114): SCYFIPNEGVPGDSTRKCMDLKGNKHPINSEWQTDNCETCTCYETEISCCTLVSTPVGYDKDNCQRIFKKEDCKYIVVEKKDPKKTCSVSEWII
# Experimental: To test whether the interaction between PSP94 and CAP family members affects their sterol binding in vitro, we performed ligand binding assays using a more water-soluble cholesterol derivative, cholesterol sulfate. […] In the presence of an equimolar concentration of PSP94, however, sterol binding by the CAP proteins was blocked (Fig. 3B).
# MST experiments were performed to assess protein–protein, protein–lipid, and protein–calcium interactions using a Monolith NT.115 (Nanotemper Technologies). Proteins were labeled using the RED-tris-NTA His tag protein labeling kit. Labeled CAP proteins, 100 nM, were mixed with a serial dilution of unlabeled PSP94, PSP9^F24G, cholesterol sulfate, or calcium chloride, prepared in binding buffer (20 mM Tris pH 7.5, 30 mM NaCl, 0.05% Triton X-100). Samples were loaded into MST standard capillaries, and MST measurements were performed using an 80% laser power setting. The dissociation constant Kd was obtained by plotting the normalized fluorescence (Fnorm) against the logarithm of ligand concentration. Experiments were performed in triplicates, and data were fitted using the Kd model of the MO.Affinity Analysis software (Nanotemper Technologies). For binding inhibition studies, CAP proteins and PSP94 were preincubated for 5 min at 24 °C before performing binding studies with cholesterol sulfate.
# [2] = target: T3, CRISP2–PSP94 heteromeric complex (Homo sapiens, UniProt P16562); test: Coimmunoprecipitation of PSP94-FLAG with CRISP2-HA from culture medium; type: cell-based, Saccharomyces cerevisiae
# T3 construct: expressed in transfected cells; host or cells: Saccharomyces cerevisiae, plasmids pRS416 (CRISP2) and pRS414 (PSP94), ADH1 promoter
# Experimental: To test whether calcium also affects the formation of the heteromeric complex in vivo, we analyzed complex formation by coimmunoprecipitation. Cells expressing CRISP2-HA and PSP94-FLAG were cultivated in the absence or presence of calcium (5 and 10 mM CaCl2), CRISP2-HA was immunoprecipitated from the culture medium, and Western blots were probed for the presence of PSP94-FLAG.
# For Coimmunoprecipitation analysis, CRISP2 wildtype and mutant versions were tagged with an HA epitope tag, and wildtype PSP94 and the PSP94^F24G mutant version were fused to a FLAG tag. Yeast strains expressing these proteins were grown overnight and collected by centrifugation. The cell pellet was resuspended in lysis buffer (50 mM Tris-HCl pH 7.5, 100 mM NaCl, 0.1% NP-40, 10% glycerol, protease inhibitor, and 1 mM PMSF), and cells were broken with glass beads in a Precellys homogenizer. The culture medium was concentrated using size-exclusion protein concentrator spin columns (3K MWCO, Pierce, Thermo Scientific). Protein concentration was estimated by Bradford assay (Bio-Rad), and both the cell lysate and concentrated culture medium were incubated overnight at 4 °C with anti-HA magnetic beads (Pierce, Thermo Scientific). […] Samples were denatured for 10 min at 95 °C and analyzed by SDS-PAGE and Western blotting. […]
smiles,measurement,setting,value
"[Ca+2] [calcium, calcium chloride]",Kd,CRISP2,0.052 ± 0.0009 µM
same,effect on sterol export by CRISP2 in the presence of PSP94,[1],restored sterol binding and export by CRISP2
same,Kd,PSP94,376 ± 1.7 µM
same,complex formation between CRISP2 and PSP94,[2]; cells grown in 5 mM calcium,reduced
same,complex formation between CRISP2 and PSP94,[2]; cells grown in 10 mM calcium,could no longer be detected
